Measured values as given in patent US20110190130A1, “SYNERGISTIC HERBICIDAL COMPOSITION CONTAINING AMINOPYRALID AND 2,4-DICHLOROPHENOXYACETIC ACID” (DOW AGROSCIENCES LLC, priority 2010, published 2011).

Columns and labels:
Format in all cases: in vivo
[1] = system: purple nutsedge (Cyperus rotundus, CYPRO); assay: Postemergence herbicidal activity of mixtures under field conditions, purple nutsedge; details: 27 days after application, rice
Procedure: (§1) These trials were conducted under field conditions in Tolima, Colombia. Trial sites were located in commercially grown fields of common rice (Oryza sativa). The rice crop was grown using normal cultural practices for fertilization, seeding, and maintenance to ensure good growth of the crop and the weeds. The trials were conducted using normal research methodology. Trial plots were 3 meters (m) wide by 6 m long. All treatments were applied using a randomized complete block trial design with 4 replications per treatment. The trial sites had naturally occurring populations of weeds. The weed spectrum included, but was not limited to, rice flatsedge (Cyperus iria, CYPIR); purple nutsedge (Cyperus rotundus, CYPRO); and common purslane, (Portulaca oleracea, POROL). The plots were treated with a postemergence foliar application 15 to 20 days after emergence of the rice.
(§2) Treatments consisted of tank mixes of soluble granules of aminopyralid tri-isopropanolammonium salt and commercially available formulations of 2,4-D (DMA 6 herbicide, water dispersible granules). The application volume was 160 liters per hectare (L/ha) of water. All application were made using precision gas hand sprayers using a 3 m boom using flat fan) (80° nozzles to broadcast the treatments over the top of the rice.
(§3) The treated plots and control plots were rated blind at various intervals after application. Ratings were based of Percent (%) Visual weed control, where 0 corresponds to no injury and 100 corresponds to complete kill.
(§4) Colby's equation was used to determine the herbicidal effects expected from the mixtures (Colby, S. R. Calculation of the synergistic and antagonistic response of herbicide combinations. Weeds 1967 15, 20-22).
(§5) The following equation was used to calculate the expected activity of mixtures containing two active ingredients, A and B:
(§6) A=observed efficacy of active ingredient A at the same concentration as used in the mixture;
(§7) B=observed efficacy of active ingredient B at the same concentration as used in the mixture.

[2] = system: common purslane (Portulaca oleracea, POROL); assay: Postemergence herbicidal activity of mixtures under field conditions, common purslane; details: 27 days after application, rice
Procedure: as §1, §2, §3, §4, §5, §6, §7

[3] = system: rice flatsedge (Cyperus iria, CYPIR); assay: Postemergence herbicidal activity of mixtures under field conditions, rice flatsedge; details: 27 days after application
Procedure: as §1, §2, §3, §4, §5, §6, §7

[4] = aminopyralid 9 grams ae/ha alone
[5] = aminopyralid 12 grams ae/ha alone

Structure (SMILES)	% Control CYPRO Obs ([1]; 2,4-D 180 grams ae/ha alone)	% Control CYPRO Obs ([1]; 2,4-D 240 grams ae/ha alone)	% Control POROL Obs ([2]; 2,4-D 180 grams ae/ha alone)	% Control POROL Obs ([2]; 2,4-D 240 grams ae/ha alone)	% Control CYPIR Obs ([3]; 2,4-D 180 grams ae/ha alone)	% Control CYPIR Obs ([3]; 2,4-D 240 grams ae/ha alone)	% Control CYPRO Obs [1, 4]	% Control CYPRO Obs [1, 5]	% Control POROL Obs [2, 4]	% Control POROL Obs [2, 5]	% Control CYPIR Obs [3, 4]	% Control CYPIR Obs [3, 5]
O=C(O)COc1ccc(Cl)cc1Cl [2,4-D, 2,4-dichlorophenoxyacetic acid]	38%	60%	20%	39%	45%	46%						
Nc1cc(Cl)nc(C(=O)O)c1Cl [Aminopyralid, 4-amino-3,6-dichloro-2-pyridinecarboxylic acid]							0%	0%	41%	53%	0%	13%
